In BindingDB's records for doi:10.7270/Q2N014XN (Srmlsc, 2007):

Target: T1, Diphosphomevalonate decarboxylase (Streptococcus pneumoniae serotype 2 (strain D39 / NCTC 7466), UniProt A0A0H2ZN59)
T1 sequence (A0A0H2ZN59 whole entry): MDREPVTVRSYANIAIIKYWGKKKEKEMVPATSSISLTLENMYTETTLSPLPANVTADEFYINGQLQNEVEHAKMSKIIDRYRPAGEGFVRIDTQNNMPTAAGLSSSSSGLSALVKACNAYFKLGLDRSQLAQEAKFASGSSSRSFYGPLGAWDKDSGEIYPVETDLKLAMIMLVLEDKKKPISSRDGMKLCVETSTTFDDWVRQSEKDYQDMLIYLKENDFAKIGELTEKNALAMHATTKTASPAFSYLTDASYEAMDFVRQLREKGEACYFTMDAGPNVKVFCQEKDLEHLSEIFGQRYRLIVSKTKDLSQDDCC
Test: diphosphomevalonate decarboxylase inhibition dose curves – biochemical, PK/LDH-coupled NADH fluorescence, hexokinase coupling counter-screen, dose response (AID 550)

SMILES | IC50 | IC50 (inactive by the depositor's call)
COC(=O)c1cc(Cl)c(NS(=O)(=O)c2ccccc2)cc1OC [4-(benzenesulfonamido)-5-chloro-2-methoxy-benzoic acid methyl ester] | 32.2 µM | –
C=C(C)Cn1c(COc2ccccc2)nnc1SCC(=O)O [2-[[4-(2-methylallyl)-5-(phenoxymethyl)-1,2,4-triazol-3-yl]thio]acetic acid] | > 10000 µM | –
COc1ccc(-c2c3c(nc4sc(C(=O)Nc5cc(C)on5)c(N)c24)CCC3)cc1 [3-amino-4-(4-methoxyphenyl)-N-(5-methyl-3-isoxazolyl)-6,7-dihydro-5H-cyclopenta[b]thieno[3,2-e]pyridine-2-carboxamide] | 8.33 µM | –
COc1ccccc1-c1nc(C(N)=O)c2[nH]c(=O)n(-c3cccc(C)c3)c2n1 [MLS000094139] | 21.6 µM | –
COc1ccc(-c2cc(C(=O)OCC(=O)N(C)C)c3ccccc3n2)cc1 [2-(4-methoxyphenyl)-4-quinolinecarboxylic acid [2-(dimethylamino)-2-oxoethyl] ester] | 41.1 µM | –
COCCNC(=O)c1cnn2c(C(F)(F)F)cc(-c3ccc4c(c3)OCO4)nc12 [5-(1,3-benzodioxol-5-yl)-N-(2-methoxyethyl)-7-(trifluoromethyl)-3-pyrazolo[1,5-a]pyrimidinecarboxamide] | > 10000 µM | –
CN(C)S(=O)(=O)c1cccc(C(=O)C2=C3SC=C(c4ccccc4)N3CC2)c1 [N,N-dimethyl-3-[(3-phenyl-5,6-dihydropyrrolo[2,1-b][1,3]thiazol-7-yl)carbonyl]benzenesulfonamide] | > 10000 µM | –
Cc1ccc2nc(-c3ccc(SCC(=O)O)nc3)[nH]c2c1 [2-[[5-(6-methyl-1H-benzimidazol-2-yl)-2-pyridinyl]thio]acetic acid] | 9.87 µM | –
COC(=O)c1ccc(COc2ccc3c4c(c(=O)oc3c2)CCC4)o1 [5-[(4-keto-2,3-dihydro-1H-cyclopenta[c]chromen-7-yl)oxymethyl]furan-2-carboxylic acid methyl ester] | 97.1 µM | –
CCC(=O)Oc1ccc2c(C)cc(=O)oc2c1C [(4,8-dimethyl-2-oxidanylidene-chromen-7-yl) propanoate] | – | 29.9 µM
Cc1ccccc1Cc1c(C)nc2c(C(=O)N3CCN(Cc4ccc5c(c4)OCO5)CC3)cnn2c1C [3-{[4-(1,3-benzodioxol-5-ylmethyl)piperazin-1-yl]carbonyl}-5,7-dimethyl-6-(2-methylbenzyl)pyrazolo[1,5-a]pyrimidine] | > 10000 µM | –
